One data set can be described thus: in vivo. The settings on record: female, albino, rabbit.
The next data set deals with macula edema patient. The experiment in a line: Treatment of macular edema with intravitreal TKI composition (ETDRS visual acuity chart). The format is in vivo, human. The note with it: twelve months after first injection; 1 mg intravitreal every 4 months; high viscosity hyaluronate solution such as Example 13 formulation. The method, then:
An obese patient with symptoms of diabetes presents with vision loss due to macula edema with central retinal vein occlusion and/or branch retinal vein occlusion. They receive intravitreal injection of 1 mg of a high viscosity TKI (polymeric hyaluronate based) solution containing COMPOUND F, such as the Example 13 formulation. Equivalent injections are made every 4 months.

Protocol for in vivo: Vitreous humor samples (n=4 eyes per timepoint) were collected at 0.5, 1, 2, 4, 8, and 12 hr postdose. The TKI concentration in the vitreous humor was determined using a liquid chromatography tandem mass spectrometry method (LC-MS/MS).

For the compound `Nc1ccc2c(c1)/C(=C1\C(=O)Nc3ccc(Cl)cc31)OC2` [COMPOUND A, 3-(6-Amino-3H-isobenzofuran-1-ylidene)-5-chloro-1,3-dihydro-indol-2-one], in the data set “in vivo”, the AUC(0-t) (commonly exposure summed from dosing to a finite time, without extrapolation to infinity) stood at 778 ng·h/mL; the C0 is 566 ng/mL; the Vd (in general, a proportionality between amount in the body and measured concentration, not a real space) came to 0.000705 L; the clearance (as a rule, the volume of plasma or blood freed of the substance per unit of time) is 0.00433 mL/min. In addition, the half-life (as a rule, the time in which the quantity being followed falls by half) in “in vivo” is 2.59 h.
On to `Cc1cc(C(=O)Nc2cccc(C#Cc3cncc(C(=O)N=S(C)(=O)c4ccc(CCC(=O)O)cc4)c3)c2)n(C)n1` (stereo not drawn) [COMPOUND F], for which the “improved best corrected visual acuity from baseline (ETDRS chart)” value with macula edema patient is given as “fifteen”.

Source of the values: US8642067B2, “Methods and compositions for intraocular administration to treat ocular conditions” (Allergen, Inc., priority 2007, dated 2014).
